Data: patent publication US4159334A, “Medicinal preparation with an antiinflammatory, analgesic and antipyretic effect” (priority 1977, dated 1979)
Entries after “also recorded” stand apart in the source; their conditions may differ.

Legend:
[1] = brufen side effects, source not stated; cited from earlier work
[2] = Aerosol-induced edema of paw in mice (acute test); assay type: in vivo; conditions: acetylsalicylic acid = 1
Text: Aerosol-induced edema of
paw in mice (acute test)

[3] = Aerosol-induced edema of paw in rats (subacute test), exudative process; assay type: in vivo
Text: Aerosol-induced edeima of
ry paw in rats (subacute test)

[4] = tail burning test in mice; assay type: in vivo; conditions: for reduction of the reaction to a thermal irritant: mice
Experimental: (§1) For example, the preparation introduced orally to mice in 10 and 20 mg/kg doses reduced the reaction of the mice to a thermal irritant by 47-75% an hour after administration. Acetylsalicylic acid in 40-300 mg/kg doses causes an effect equal to 37-87%.

[5] = acetic acid "writhing" in mice; assay type: in vivo; conditions: acetylsalicylic acid = 1
[6] = painful irritation of rat's paw with electric current; assay type: in vivo, rats; conditions: acetylsalicylic acid = 1
yeast fever in rats = assay type: in vivo
[7] = phenamine hyperthermia in mice; assay type: in vivo
Text: | Phenamine hyperthermia in

[8] = acute toxicity to anti-edematous action ratio (LD50/ED50) in mice; assay type: in vivo; conditions: oral administration, acetylsalicylic acid = 1
[9] = embryotoxic effects in rats; assay type: in vivo
Text: The preparation was examined for possible embryotoxic effects in rats.

[10] = acute toxicity in mice (oral, intraperitoneal); conditions: for LD50: mouse, in vivo
[11] = carrageenin and aerosol-induced inflammatory edema, acute tests in mice; assay type: in vivo; conditions: single oral doses of 5 to 20 mg/kg
[12] = implanted sterile paper balls, granuloma weight in rats; assay type: in vivo; conditions: 10 and 20 mg/kg
Experimental: It was established in tests with rats with implanted sterile paper rolled into balls that 10 and 20 mg/kg doses of the preparation reduce the weight of the granulomas by 41-60% and, consequently, produce an inhibiting effect on proliferation processes during inflammation.

[13] = tested on: erythrocyte aggregation reaction; assay: membrane-stabilizing effect: erythrocyte aggregation reaction caused by a gelatine solution, in vitro and in vivo; assay type: cell-based
[14] = tests in adrenalectomized animals; assay type: in vivo
[15] = comparison of analgesic ED50 values in three models (tail burning, writhing, electric current); assay type: in vivo; conditions: acetic acid writhing (mice), electric current (rats)
Experimental: as §1

acute toxicity in cats = assay type: in vivo
[16] = tolerance on oral administration for 2 to 4 months; assay type: in vivo; conditions: rats, rabbits and dogs, doses equal to 5% of LD50, 30 and 70 times the human dose
Text: These doses, which are conventionally therapeutic, and equal to 5% of the LD50 for these animals, exceeded 30 and 70 times the dose recommended for humans.

[17] = influence on organ functions and internal organs of animals; assay type: in vivo
[18] = set-up: species or system rabbits; conditions: rabbit, in vivo
[19] = tested on: cells of the amnionic membrane; assay type: cell-based, human
[20] = clinical trials, therapeutic effect; assay type: in vivo, human patients
Text: (§2) The course of treatment lasted 3 to 4 weeks. In individual cases, the preparation was given once daily for 1 to 5 days as a symptomatic remedy (analgesic and antipyretic).
The main group of the patients given a course of treatment (203 persons), had the following diseases: rheumatism (active phase, 1st-2nd degree, according to A. I. Nesterov's classification) affecting the joints and heart (primary and recurrent rheumocarditis, heart disease of rheumatic etiology with symptoms of cardiac decompensation, of the 1-2A degree)--76 patients; polyarthritis (rheumatoid, exacerbation of chronic infectious, acute infectious-allergic, metabolic)--89 patients; arthrosis, spondylosis, exacerbation of chronic interstitial pneumonia--9 patients.
(§3) The effectiveness of the preparation was assessed by changes in complaints, clinical observation results (temperature, sensation of pain, local manifestations of the inflammatory process) and laboratory examination data (changes patients' peripheral blood picture, albumin fractions, glycoproteins and sialic acids content in blood serum, examination of stools for occult blood before and after treatment, etc.).

[21] = set-up: species or system human patients; conditions: human, in vivo
Experimental: as §2, §3
Clinicians hold the option that tolerance to the preparation is good.

[22] = comparison of activity with acetylsalicylic acid, all experimental studies; assay type: in vivo; conditions: Table 2
[23] = carrageenin-induced inflammatory edema, comparison with literature data; assay type: in vivo
[24] = set-up: species or system human patients; conditions: human, in vivo; remark: listed apart in the source
Text: On the basis of these experimental data, the preparation was used clinically for the treatment of patients with chronic polyarthritis accompanied by gastrointestinal pathology, namely duodenal ulcer in the stage of remission. […] In view of the above, and also in view of the new preparation's general good tolerance, it may be used in patients with accompanying diseases of the organs of the alimentary system, which are contraindications to the use of most of the antiinflammatory remedies.

antibacterial action = conditions: in contrast to brufen
[25] = in vivo
[26] = in vivo; remark: listed apart in the source
[27] = rheumatic heart and joint disease

CC(C)Cc1ccc(C(C)C(=O)O)cc1 (centres unmarked) [Brufen]
abdominal pain and headaches [1]: 11%
allergic symptoms [1]: 6-8%
dyspepsia, gastrointestinal hemorrhages, bronchospasm, thrombocytopenia, mental disorders, exacerbation of cholecystitis [1]: 11-15%

CC(=O)Oc1ccccc1C(=O)O [acetylsalicylic acid, reference compound]
Relative activity, antiinflammatory, aerosol-induced edema of paw in mice (acute test) [2]: 1
Relative activity, antiinflammatory, aerosol-induced edema of paw in rats (subacute test) ([3]; acetylsalicylic acid = 1): 1
dose producing a similar effect, relative to the proposed preparation ([3]; rats, same test conditions, subacute): 30 times
Relative activity, analgesic, burning tail of mice ([4]; acetylsalicylic acid = 1): 1
reduction of the reaction to a thermal irritant ([4]; 40-300 mg/kg): 37-87%
Relative activity, analgesic, acetic acid "writhing" in mice [5]: 1
Relative activity, analgesic, painful irritation of rat's paw with electric current [6]: 1
Relative activity, antipyretic, yeast fever in rats (yeast fever in rats; acetylsalicylic acid = 1): 1
Relative activity, antipyretic, phenamine hyperthermia in mice ([7]; acetylsalicylic acid = 1): 1
Relative therapeutic index, acute toxicity to anti-edematous action ratio (LD50/ED50) [8]: 1
embryotoxic effect ([9]; parallel comparative tests): produces an embryotoxic effect
enteral coefficient ([10]; mice): -1.8
LD50 ([10]; ip): 1100 mg/kg
LD50 ([10]; po): 1910 mg/kg

OC(Nc1nccs1)C(Cl)(Cl)Cl (centres unmarked) [proposed preparation, 2,2,2-trichloro-1-(2-thiazolylamino)-ethanol]
reduction of the symptoms of exudation [11]: 17-62%
reduction of intensity of the exudative process ([3]; rats, 10 mg/kg, within 3 hours after administration): reducing its intensity by half
reduction of the weight of the granulomas [12]: 41-60%
membrane-stabilizing effect (erythrocyte aggregation reaction) [13]: mitigation of the erythrocyte aggregation reaction
contribution of the adrenal system to antiinflammatory effect [14]: andrenal system contributes to the proposed preparation's antiinflammatory effect
reduction of the reaction to a thermal irritant ([4]; oral, 10 and 20 mg/kg, an hour after administration): 47-75%
analgesic effect [15]: analgesic effect was proved by three methods
antipyretic effect compared with acetylsalicylic acid (yeast fever in rats; rats with yeast fever, 100 mg/kg): corresponds to that produced by a 300 mg/kg dose of acetylsalicylic acid
phenamine hyperthermia ([7]; mice, same dose (100 mg/kg) followed by phenamine): do not manifest the usual hyperthermia
picture of intoxication (acute toxicity in cats; acute toxicity, doses in excess of 1 g/kg): pronounced inhibition in the animals into a state similar to the prenarcotic state
dose causing symptoms of intoxication and death (acute toxicity in cats; cats): > 1000 mg/kg
tolerance on long oral administration [16]: well tolerated
functions of the respiratory and cardiovascular systems [17]: does not affect
irritation of tissues [18]: does not cause irritation
toxic effect on cells of the amnionic membrane [19]: nor does it have any toxic effect
effect on development of the rat embryos ([9]; 55 mg/kg, 12 days from the 9th day of pregnancy): does not affect the development of the rat embryos
patients with pronounced therapeutic effect, arthritis ([20]; arthritis of different etiology, 89 patients): 68%
patients with similar therapeutic effect ([20]; arthrosis, spondylosis and exacerbation of chronic interstitial pneumonia): 65%
number of patients with pronounced therapeutic effect, arthritis ([20]; out of 89): 61
number of patients with pronounced therapeutic effect, rheumatic ([20]; out of the 76 patients): 61 patients
drop in temperature, time ([20]; patients): towards the end of the first week of therapy
temperature after course ([20]; patients, 3 to 4 week course): completely normalized
general status, physical activity, symptoms of local inflammation ([20]; patients, 4th to 9th day from beginning of treatment): improvement of the patient's general status, increasing physical activity, abatement of symptoms of local inflammation
ECG indices [20, 27]: ECG indices improved: extrasystole disappeared, symptoms of myocardial anoxia diminished
pain in the region of the heart [20, 27]: abated
paraclinical data: albumin content and gamma-fraction of the blood [20, 27]: a marked tendency towards a higher albumin content and the normalization of the gamma-fraction of the blood
paraclinical data: leukocytes, ESR [20, 27]: disappearance of leukocytes drop of the ESR to normal
neurological status ([20]; rheumatic patients): improvement of their neurological status was observed, manifested by diminishing asthenia and irritability
patients with pronounced therapeutic effect, rheumatic ([20]; rheumatic patients, 76 patients): 80%
contraindications [21]: No contraindications
influence on peripheral blood composition [21]: no influence on the peripheral blood composition
leukocyte count [21]: diminished to norm in leukocytosis and increased in leukopenia
tolerance [21]: good
activity compared with acetylsalicylic acid [22]: higher activity than acetylsalicylic acid; also recorded: superior to acetylsalicylic acid in all the main effects
antiinflammatory activity compared with sodium salicylate, phenylbutazone, mephenamic acid (Ponstan) and brufen [23]: higher than that of sodium salicylate, phenylbutazone, mephenamic acid (Ponstan) and brufen
exacerbation of the ulcerous disease [24]: did not cause an exacerbation of the ulcerous disease
fecal reaction to occult blood [24]: negative in all the patients
antibacterial action (antibacterial action): moderately pronounced antibacterial action
harmful effect on the gastrointestinal mucosa [25]: no harmful effect on the gastrointestinal mucosa
discomfort in the epigastral region [26]: 1.6 % of cases
drug dermatitis [26]: 2.4%
reversibility of side effects [26]: pass quickly once the preparation is discontinued
absorption from the gastrointestinal tract compared with acetylsalicylic acid ([10]; from enteral coefficient): better absorption of the preparation from the gastrointestinal tract
LD50 ([10]; ip): 708 mg/kg
LD50 ([10]; po): 1050 mg/kg
